How the values were obtained:
[1] = system: NCI-H358 cells (K-Ras G12C); test: Potency assay: pERK in NCI-H358 cells; format: cell-based, human; conditions: Homo sapiens, NCI-H358; H358 KRAS G12C; read-out: pERK EC50
In short: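 Compounds are dosed as ten 3-fold dilutions from a 10 mM DMSO stock, in duplicate, and left on cells for 4 h at 37 °C, 5% CO2. Phospho-ERK1/2 is then quantified by AlphaLISA SureFire Ultra or In-Cell Western, and IC50 is derived from a 4-parameter sigmoid against log concentration.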

[2] = biological target: K-Ras G12C (Homo sapiens (Human), UniProt P01116+P62937, G12C); test: Ras-Raf (BRAF RBD) disruption / FRET / MOA assay, KRAS G12C; format: biochemical; conditions: KRAS G12C; Ras-Raf disruption/FRET/MOA assay; read-out: IC50* KRAS G12C FRET data
Chain of K-Ras G12C (P01116-2 other isoform, or with tags, fused parts or gaps G12C): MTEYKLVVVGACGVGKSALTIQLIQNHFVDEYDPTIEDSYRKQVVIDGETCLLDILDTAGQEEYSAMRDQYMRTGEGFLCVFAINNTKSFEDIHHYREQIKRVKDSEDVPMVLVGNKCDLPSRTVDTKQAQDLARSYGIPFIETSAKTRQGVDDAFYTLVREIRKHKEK
Chain of K-Ras G12C (P62937 whole entry): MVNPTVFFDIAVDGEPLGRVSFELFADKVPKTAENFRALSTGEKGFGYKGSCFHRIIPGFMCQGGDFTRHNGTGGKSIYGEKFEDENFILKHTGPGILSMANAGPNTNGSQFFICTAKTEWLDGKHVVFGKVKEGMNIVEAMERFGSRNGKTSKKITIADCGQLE
In short: (§1)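 Compound-driven ternary complex of nucleotide-loaded Ras with cyclophilin A, disrupting BRAF RBD binding. 10-point 3-fold dilution from 30 μM final, 3 h at 25° C, then anti-His Eu-W1024 (10 nM) and anti-GST allophycocyanin (50 nM) for 1.5 h. IC50 from TR-FRET ratio decrease versus DMSO.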

[3] = biological target: NRAS WT (Homo sapiens (Human), UniProt P01111+P62937); test: Ras-Raf (BRAF RBD) disruption / FRET / MOA assay, NRAS WT; format: biochemical; conditions: read-out: IC50* NRAS WT FRET data
Chain of NRAS WT (P01111 whole entry): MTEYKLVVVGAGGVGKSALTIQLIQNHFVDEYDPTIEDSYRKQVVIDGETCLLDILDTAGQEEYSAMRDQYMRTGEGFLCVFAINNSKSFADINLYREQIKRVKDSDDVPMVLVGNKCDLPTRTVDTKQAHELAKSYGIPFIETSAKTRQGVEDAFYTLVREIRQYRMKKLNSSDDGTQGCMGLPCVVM
Chain of NRAS WT (P62937 whole entry): as the sequence (P62937 whole entry) above
In short: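 Compounds (30 μM top final, 10-point 3-fold dilutions) incubated 3 h at 25° C with nucleotide-loaded Ras, cyclophilin A and BRAF RBD. Detection with 10 nM anti-His Eu-W1024 and 50 nM anti-GST allophycocyanin over another 1.5 h. Lowered TR-FRET ratio relative to DMSO wells gives IC50.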

[4] = biological target: KRAS G12D (Homo sapiens (Human), UniProt P01116+P62937, G12D); test: Ras-Raf (BRAF RBD) disruption / FRET / MOA assay, KRAS G12D; format: biochemical; conditions: Ras-Raf disruption/FRET/MOA assay; class symbols; read-out: KRAS G12D FRET data IC50
Chain of KRAS G12D (P01116-2 other isoform, or with tags, fused parts or gaps G12D): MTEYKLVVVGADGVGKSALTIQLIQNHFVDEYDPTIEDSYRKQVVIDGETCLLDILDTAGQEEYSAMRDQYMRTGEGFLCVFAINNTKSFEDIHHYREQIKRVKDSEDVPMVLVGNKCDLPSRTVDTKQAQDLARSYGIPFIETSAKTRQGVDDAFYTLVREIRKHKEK
Chain of KRAS G12D (P62937 whole entry): as the sequence (P62937 whole entry) above
In short: as §1

[5] = biological target: NRAS G12C (Homo sapiens (Human), UniProt P01111+P62937, G12C); test: Ras-Raf (BRAF RBD) disruption / FRET / MOA assay, NRAS G12C; format: biochemical; conditions: read-out: IC50* NRAS G12C FRET data
Chain of NRAS G12C (P01111 whole entry G12C): as the sequence (P01111 whole entry) above, with G12C counted along it
Chain of NRAS G12C (P62937 whole entry): as the sequence (P62937 whole entry) above
In short: as §1

[6] = biological target: KRAS G13D (Homo sapiens (Human), UniProt P01116+P62937, G13D); test: Ras-Raf (BRAF RBD) disruption / FRET / MOA assay, KRAS G13D; format: biochemical; conditions: read-out: IC50* KRAS G13D FRET data
Chain of KRAS G13D (P01116-2 other isoform, or with tags, fused parts or gaps G13D): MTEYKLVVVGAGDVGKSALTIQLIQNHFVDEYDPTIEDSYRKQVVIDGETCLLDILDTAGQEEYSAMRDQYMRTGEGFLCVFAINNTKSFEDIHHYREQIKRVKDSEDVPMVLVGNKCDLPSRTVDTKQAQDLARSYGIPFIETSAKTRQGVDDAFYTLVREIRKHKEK
Chain of KRAS G13D (P62937 whole entry): as the sequence (P62937 whole entry) above
In short: as §1

[7] = biological target: KRAS G12V (Homo sapiens (Human), UniProt P01116+P62937, G12V); test: Ras-Raf (BRAF RBD) disruption / FRET / MOA assay, KRAS G12V; format: biochemical; conditions: read-out: IC50* KRAS G12V FRET data
Chain of KRAS G12V (P01116-2 other isoform, or with tags, fused parts or gaps G12V): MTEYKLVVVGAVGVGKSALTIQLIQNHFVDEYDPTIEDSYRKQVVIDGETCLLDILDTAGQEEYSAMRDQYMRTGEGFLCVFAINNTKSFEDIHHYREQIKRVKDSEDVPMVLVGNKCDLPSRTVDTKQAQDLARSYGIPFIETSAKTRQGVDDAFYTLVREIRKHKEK
Chain of KRAS G12V (P62937 whole entry): as the sequence (P62937 whole entry) above
In short: as §1

Row | SMILES | EC50 [1] [µM] | IC50 [2] [µM] | IC50 [3] [µM] | IC50 [4] [µM] | IC50 [5] [µM] | IC50 [6] [µM] | IC50 [7] [µM]
1 | C=CC(=O)N1C[C@@H](C)N(C(=O)N(C)[C@H](C(=O)N[C@H]2Cc3nc(cs3)-c3ccc4c(c3)c(c(-c3cccnc3[C@H](C)OC)n4CC)CC(C)(C)COC(=O)[C@@H]3CCCN(N3)C2=O)C(C)C)[C@@H](C)C1 (atropisomer, axis not shown) [Example A387] | < 5 | 0.01 to 0.1 | 0.01 to 0.1 | 0.1 to 1 | 0.01 to 0.1 | 0.1 to 1 | 0.1 to 1
2 | C=CC(=O)N1CC2(CCN(C(=O)N(C)[C@H](C(=O)N[C@H]3Cc4nc(cs4)-c4ccc5c(c4)c(c(-c4cccnc4[C@H](C)OC)n5CC)CC(C)(C)COC(=O)[C@@H]4CCCN(N4)C3=O)C(C)C)CC2)C1 (atropisomer, axis not shown) [Example A394] | < 5 | 0.01 to 0.1 | 0.1 to 1 | 0.1 to 1 | 0.01 to 0.1 | 0.1 to 1 | 0.1 to 1
3 | C=CC(=O)N1CCN(C(=O)N(C)[C@H](C(=O)N[C@H]2Cc3nc(cs3)-c3ccc4c(c3)c(c(-c3cccnc3[C@H](C)OC)n4CC)CC(C)(C)COC(=O)[C@@H]3CCCN(N3)C2=O)C(C)C)CC12CC2 (atropisomer, axis not shown) [Example A417] | < 5 | 0.01 to 0.1 | 0.01 to 0.1 | 0.1 to 1 | 0.01 to 0.1 | 0.1 to 1 | 0.1 to 1
4 | CCn1c(-c2cccnc2[C@H](C)OC)c2c3cc(ccc31)-c1csc(n1)C[C@H](NC(=O)CCOC1CN(C(=O)C#CC(C)(C)N(C)C)C1)C(=O)N1CCC[C@H](N1)C(=O)OCC(C)(C)C2 (atropisomer, axis not shown) [Example A427, 3-((1-(4-(dimethylamino)-4-methylpent-2-ynoyl)azetidin-3-yl)oxy)-N-((6^3S,4S,Z)-1^1-ethyl-1^2-(2-((S)-1-methoxyethyl)pyridin-3-yl)-10,10-dimethyl-5,7-dioxo-6^1,6^2,6^3,6^4,6^5,6^6-hexahydro-1^1H-8-oxa-2(4,2)-thiazola-1(5,3)-indola-6(1,3)-pyridazinacycloundecaphane-4-yl)propanamide] | < 5 | < 0.01 | 1 to 10 | > 10 | < 0.01 | 1 to 10 | 1 to 10
5 | C=CC(=O)N1CC[C@H](C(=O)N(C)[C@H](C(=O)N[C@H]2Cc3cccc(c3)-c3ccc4c(c3)c(c(-c3cc5c(nc3[C@H](C)OC)CCN(C)C5)n4CC)CC(C)(C)COC(=O)[C@@H]3CCCN(N3)C2=O)C(C)C)C1 (atropisomer, axis not shown) [Example A461] | < 5 | 0.1 to 1 | 1 to 10 | > 10 | 0.1 to 1 | > 10 | 1 to 10
6 | C=CC(=O)N(C)C1CN(C(=O)N(C)[C@H](C(=O)N[C@H]2Cc3nc(cs3)-c3ccc4c(c3)c(c(-c3cccnc3[C@H](C)OC)n4CC)CC(C)(C)COC(=O)[C@@H]3CCCN(N3)C2=O)C(C)C)C1 (atropisomer, axis not shown) [Example A463] | < 5 | 0.01 to 0.1 | 0.1 to 1 | 1 to 10 | 0.01 to 0.1 | 0.1 to 1 | 0.1 to 1
7 | C=CC(=O)N1CC[C@H](C(=O)N(C)[C@H](C(=O)N[C@H]2Cc3nc(cs3)-c3ccc4c(c3)c(c(-c3cc5c(nc3[C@H](C)OC)CCN(C)C5)n4CC)CC(C)(C)COC(=O)[C@@H]3CCCN(N3)C2=O)C(C)C)C1 (atropisomer, axis not shown) [Example A472] | < 5 | 0.1 to 1 | 1 to 10 | > 10 | 0.1 to 1 | 1 to 10 | 1 to 10
8 | C=CC(=O)N1CC[C@H](C(=O)N(C)[C@H](C(=O)N[C@H]2Cc3cc(C)cc(c3)-c3ccc4c(c3)c(c(-c3cccnc3[C@H](C)OC)n4CC)CC(C)(C)COC(=O)[C@@H]3CCCN(N3)C2=O)C(C)C)C1 (atropisomer, axis not shown) [Example A498] | < 5 | 0.1 to 1 | 1 to 10 | > 10 | 0.1 to 1 | > 10 | 1 to 10
9 | C=CC(=O)N1CC[C@H](C(=O)N(C)[C@H](C(=O)N[C@H]2Cc3cccc(c3)-c3ccc4c(c3)c(c(-c3cccnc3[C@H](C)OC)n4CC#CC)CC(C)(C)COC(=O)[C@@H]3CCCN(N3)C2=O)C(C)C)C1 (atropisomer, axis not shown) [Example A531] | < 5 | 0.1 to 1 | 1 to 10 | > 10 | 0.1 to 1 | > 10 | 1 to 10
10 | C=CC(=O)N1CCOC2(C1)CN(C(=O)N(C)[C@H](C(=O)N[C@H]1Cc3cccc(c3)-c3ccc4c(c3)c(c(-c3cccnc3[C@H](C)OC)n4CC(F)(F)F)CC(C)(C)COC(=O)[C@@H]3CCCN(N3)C1=O)C(C)C)C2 (atropisomer, axis not shown) [Example A538] | < 5 | 0.01 to 0.1 | 0.1 to 1 | 1 to 10 | 0.01 to 0.1 | 0.1 to 1 | 0.1 to 1
11 | CO[C@@H](C)c1ncccc1-c1c2c3cc(ccc3n1CC(F)(F)F)-c1cccc(c1)C[C@H](NC(=O)[C@H](C(C)C)N(C)C(=O)N1CCC3(CC1)CN(C(=O)/C=C/CN(C)C)C3)C(=O)N1CCC[C@H](N1)C(=O)OCC(C)(C)C2 (atropisomer, axis not shown) [Example A555] | < 5 | 0.1 to 1 | 0.1 to 1 | 0.1 to 1 | 0.1 to 1 | 0.1 to 1 | 0.1 to 1
12 | CCn1c(-c2cccnc2[C@H](C)OC)c2c3cc(ccc31)-c1cccc(c1)C[C@H](NC(=O)[C@H](C(C)C)N1CC[C@@]3(CCN(C(=O)C#C[C@H]4COCCN4C4COC4)C3)C1=O)C(=O)N1CCC[C@H](N1)C(=O)OCC(C)(C)C2 (atropisomer, axis not shown) [Example A567] | < 5 | 0.01 to 0.1 | 1 to 10 | 1 to 10 | 0.01 to 0.1 | 1 to 10 | 1 to 10
13 | C=CC(=O)N1CCO[C@H]2CN(C(=O)N(C)[C@H](C(=O)N[C@H]3Cc4coc(n4)-c4ccc5c(c4)c(c(-c4cccnc4[C@H](C)OC)n5CC(F)(F)F)CC(C)(C)COC(=O)[C@@H]4CCCN(N4)C3=O)C(C)C)C[C@H]21 (atropisomer, axis not shown) [Example A574] | < 5 | 0.1 to 1 | 1 to 10 | > 10 | 0.01 to 0.1 | 1 to 10 | 1 to 10
14 | C=CC(=O)N1C[C@@H](N(C)C(=O)N(C)[C@H](C(=O)N[C@H]2Cc3nc(cs3)-c3ccc4c(c3)c(c(-c3cccnc3[C@H](C)OC)n4CC)CC(C)(C)COC(=O)[C@@H]3CCCN(N3)C2=O)C(C)C)[C@@H](C)C1 (atropisomer, axis not shown) [Example A583] | < 5 | 0.1 to 1 | 0.1 to 1 | 1 to 10 | 0.1 to 1 | 1 to 10 | 1 to 10
15 | C=CC(=O)N1C[C@H](C)N(C(=O)N(C)[C@H](C(=O)N[C@H]2Cc3nc(cs3)-c3ccc4c(c3)c(c(-c3cccnc3[C@H](C)OC)n4CC)CC(C)(C)COC(=O)[C@@H]3CCCN(N3)C2=O)C(C)C)CC12CC2 (atropisomer, axis not shown) [Example A586] | < 5 | 0.1 to 1 | 0.1 to 1 | 1 to 10 | 0.1 to 1 | 1 to 10 | 0.1 to 1
16 | C=CC(=O)N1C[C@@H](C)[C@H](N(C)C(=O)N(C)[C@H](C(=O)N[C@H]2Cc3nc(cs3)-c3ccc4c(c3)c(c(-c3cccnc3[C@H](C)OC)n4CC)CC(C)(C)COC(=O)[C@@H]3CCCN(N3)C2=O)C(C)C)C1 (atropisomer, axis not shown) [Example A588] | < 5 | 0.1 to 1 | 1 to 10 | 1 to 10 | 0.1 to 1 | 1 to 10 | 1 to 10
17 | C=CC(=O)Nc1cnc(OC[C@H](C(=O)N[C@H]2Cc3cccc(c3)-c3ccc4c(c3)c(c(-c3cccnc3[C@H](C)OC)n4CC)CC(C)(C)COC(=O)[C@@H]3CCCN(N3)C2=O)C(C)C)n1C (atropisomer, axis not shown) [Example A600] | < 5 | < 0.01 | 0.1 to 1 | 1 to 10 | < 0.01 | 1 to 10 | 1 to 10
18 | C=CC(=O)N1CCOC2(C1)CN(C(=O)N(C)[C@H](C(=O)N[C@H]1Cc3nc(cs3)-c3ccc4c(c3)c(c(-c3cccnc3[C@H](C)OC)n4CC(F)(F)F)CC(C)(C)COC(=O)[C@@H]3CCCN(N3)C1=O)C(C)C)C2 (atropisomer, axis not shown) [Example A604] | < 5 | 0.1 to 1 | 0.1 to 1 | 1 to 10 | 0.1 to 1 | 1 to 10 | 0.1 to 1

From patent US11566007B2, “Ras inhibitors” (Revolution Medicines, Inc., priority 2019, dated 2023)
